Earlier results as cited in US12576064B2, “Urolithin gummy (pectin) formulations” (Amazentis SA, priority 2023, dated 2026).

Tested on: myotubes
Conditions: in vitro

| SMILES | mean diameter of myotubes |
| --- | --- |
| O=c1oc2cc(O)ccc2c2ccccc12 [Urolithin B] | increased |
| O=c1oc2cc(O)ccc2c2ccc(O)cc12 [Urolithin A] | not seen |
